Assay results: patent US20140350273A1, “PEDIATRIC USES OF CABAZITAXEL” (AVENTIS PHARMA S.A., priority 2012, published 2014)
Read-outs that look alike come from different tables or passages of the source.

Tested on: human Ewing's sarcoma DM101
Format: in vivo
Conditions: for Tumor Volume Data (Day 11) Median / ΔT/ΔC %: day 11; for MTTE / T-C: volume endpoint 2000 mm^3; for tumor volume changes from baseline, Median +/− MAD: nude mice bearing DM101 Ewing's sarcoma
Description: The resultant solution contains 10 mg/mL of cabazitaxel. Stock solution of cabazitaxel was then diluted in 0.9% sodium chloride.
This efficacy may be quantified, for example, as changes in tumor volume for each treated (T) and control (C) group, which are calculated for each animal and each day by subtracting the tumor volume on the day of first treatment (staging day) from the tumor volume on the specified observation day. This allows calculating the tumor growth inhibition: ΔT/ΔC=(median delta T/median delta C)×100. Individual tumor volume changes from baseline are thereafter analyzed by a non-parametric two-way ANOVA-TYPE (with factors: group and repeated days) followed by a post-hoc contrasts analysis, with Bonferroni-Holm adjustment for multiplicity, comparing all treated groups to the control group. […] A probability less than 5% (p<0.05) was considered as significant.
Based on the National Cancer Institute (NCl) standards, a ΔT/ΔC≦40% is the minimal level required to declare activity.
This efficacy may also be quantified by the number of tumor regressions observed after therapy. Individual mice reporting a tumor volume ≦50% of the Day 0 measurement for two consecutive measurements over a seven day period were considered partial responders (PR). Individual mice lacking palpable tumors (<4×4 mm^2 for two consecutive measurements over a seven day period) were classified as complete responders (CR); a CR that persisted until study completion was considered a tumor-free survivor (TFS).
Efficacy could also be determined at study completion, using tumor growth delay (T-C) in days, which is calculated using the median time to endpoint (MTTE) value for each treatment (T) group versus control (C). A Log Rank multiple comparison test with Bonferroni-Holm adjustment for multiplicity was applied on individual TTE to compare the treated groups to the control group.
The animals subjected to the experiment are subcutaneously grafted unilaterally with approximately 30 mg of a tumor fragment from low passage pediatric patient-derived tumor xenografts. The animals are implanted with a human patient-derived pediatric tumor xenografted in immuno-compromised mice (Harlan; nu/nu). Several days post tumor implantation, mice are randomized according to their tumor burden to the different groups of treatments and controls. The agents are dosed intravenously at 5.8, 9.3, 15 or 24.2 mg/kg every 4 days for a total of 3 doses (q4d×3) to mice bearing a tumor burden at start of therapy (day 0) ranged from 125 to 250 mm^3.
Beginning Day 0, animals were observed daily and weighed twice weekly using a digital scale; data including individual and mean gram weights (Mean We±SD), mean percent weight change versus Day 0 were recorded for each group. Animal deaths were recorded daily and designated as drug-related (D), technical (T), tumor related (B), or unknown (U) based on weight loss and gross observation; single agent or combination groups reporting a mean >20% for a period of 7 days and/or >10% mortality were considered above the maximum tolerated dose (MTD) for that treatment on the evaluated regimen.
The selected tumor model, DM101, was a low passage patient-derived tumor xenograft derived from an Ewing's sarcoma taken from the bone of a patient.
The following end points were used: • Toxicity was declared at dosages inducing ≧20% body weight loss or ≧10% drug death; • Antitumor efficacy was determined by calculating the ΔT/ΔC value in percent on day 11 post treatment initiation, according to the above mentioned formula; • Individual tumor volume changes from baseline were analyzed by a non-parametric two-way ANOVA-TYPE (with factors: group and repeated day from 4 to 14) followed by a post-hoc contrasts analysis, with Bonferroni-Holm adjustment for multiplicity, comparing all treated groups to the control group on day 11. […] The volume endpoint for T-C calculations was chosen to be 2000 mm^3.

What does the source list for CO[C@H]1C(=O)[C@]2(C)[C@@H](OC)C[C@H]3OC[C@@]3(OC(C)=O)[C@H]2[C@H](OC(=O)c2ccccc2)[C@]2(O)C[C@H](OC(=O)[C@H](O)[C@@H](NC(=O)OC(C)(C)C)c3ccccc3)C(C)=C1C2(C)C [Cabazitaxel, 4α-acetoxy-2α-benzoyloxy-5β,20-epoxy-1β-hydroxy-7β,10β-dimethoxy-9-oxo-11-taxen-13α-yl (2R,3S)-3-tert-butoxycarbonyl-amino-2-hydroxy-3-phenylpropionate]?
#CR (5.8 mg/kg i.v./q4d × 3): 0/0/0; #PR (5.8 mg/kg i.v./q4d × 3): 0/0/0; #TFS (5.8 mg/kg i.v./q4d × 3): 0/0/0; Drug Deaths Total (5.8 mg/kg i.v./q4d × 3): 0; Tumor Volume Data (Day 11) Median (5.8 mg/kg i.v./q4d × 3): 204 mm^3; ΔT/ΔC % (5.8 mg/kg i.v./q4d × 3): 8.9%; MTTE (5.8 mg/kg i.v./q4d × 3): 34.8 days; T-C (5.8 mg/kg i.v./q4d × 3): 17.9 days; tumor volume changes from baseline, Median +/− MAD (5.8 mg/kg, DAY 4): 0 +/− 0 (n = 9); tumor volume changes from baseline, Median +/− MAD (5.8 mg/kg, DAY 7): 34 +/− 34; tumor volume changes from baseline, Median +/− MAD (5.8 mg/kg, DAY 11): 73 +/− 73; tumor volume changes from baseline, Median +/− MAD (5.8 mg/kg, DAY 14): 155 +/− 136; tumor volume changes from baseline, Median +/− MAD (5.8 mg/kg, DAY 17): 306 +/− 152; tumor volume changes from baseline, Median +/− MAD (5.8 mg/kg, DAY 20): 489 +/− 199; tumor volume changes from baseline, Median +/− MAD (5.8 mg/kg, DAY 25): 696.5; tumor volume changes from baseline, Median +/− MAD (5.8 mg/kg, DAY 28): 1097 +/− 117; tumor volume changes from baseline, Median +/− MAD (5.8 mg/kg, DAY 32): 1396; #CR (9.3 mg/kg i.v./q4d × 3): 1/1/1; #PR (9.3 mg/kg i.v./q4d × 3): 1/1/1; #TFS (9.3 mg/kg i.v./q4d × 3): 1/1/1; Drug Deaths Total (9.3 mg/kg i.v./q4d × 3): 0; Weight Nadir % (9.3 mg/kg i.v./q4d × 3): −2%; Weight Nadir Day (9.3 mg/kg i.v./q4d × 3): 7; Tumor Volume Data (Day 11) Median (9.3 mg/kg i.v./q4d × 3): 255 mm^3; ΔT/ΔC % (9.3 mg/kg i.v./q4d × 3): 9.4%; MTTE (9.3 mg/kg i.v./q4d × 3): 23.9 days; T-C (9.3 mg/kg i.v./q4d × 3): 7 days; tumor volume changes from baseline, Median +/− MAD (9.3 mg/kg, DAY 4): 0 +/− 33; tumor volume changes from baseline, Median +/− MAD (9.3 mg/kg, DAY 7): 13 +/− 41; tumor volume changes from baseline, Median +/− MAD (9.3 mg/kg, DAY 11): 77 +/− 118; tumor volume changes from baseline, Median +/− MAD (9.3 mg/kg, DAY 14): 188 +/− 241; tumor volume changes from baseline, Median +/− MAD (9.3 mg/kg, DAY 17): 498 +/− 485; tumor volume changes from baseline, Median +/− MAD (9.3 mg/kg, DAY 20): 766 +/− 713; tumor volume changes from baseline, Median +/− MAD (9.3 mg/kg, DAY 25): 1095; tumor volume changes from baseline, Median +/− MAD (9.3 mg/kg, DAY 28): 182.5 +/− 248; tumor volume changes from baseline, Median +/− MAD (9.3 mg/kg, DAY 32): 385 +/− 414; #CR (15 mg/kg i.v./q4d × 3): 9; #PR (15 mg/kg i.v./q4d × 3): 9; #TFS (15 mg/kg i.v./q4d × 3): 7; Drug Deaths Total (15 mg/kg i.v./q4d × 3): 0; Weight Nadir % (15 mg/kg i.v./q4d × 3): −3%; Weight Nadir Day (15 mg/kg i.v./q4d × 3): 7; Tumor Volume Data (Day 11) Median (15 mg/kg i.v./q4d × 3): 0 mm^3; ΔT/ΔC % (15 mg/kg i.v./q4d × 3): −16%; MTTE (15 mg/kg i.v./q4d × 3): >61 days; T-C (15 mg/kg i.v./q4d × 3): >44.1 days; CR (15 mg/kg q4d×3 IV): 9/9; TFS (15 mg/kg q4d×3 IV): 7/9; tumor volume changes from baseline, Median +/− MAD (15 mg/kg, DAY 4): 0 +/− 0 (n = 9); tumor volume changes from baseline, Median +/− MAD (15 mg/kg, DAY 7): −113 +/− 32; tumor volume changes from baseline, Median +/− MAD (15 mg/kg, DAY 11): −131 +/− 47; tumor volume changes from baseline, Median +/− MAD (15 mg/kg, DAY 14): −131 +/− 47; tumor volume changes from baseline, Median +/− MAD (15 mg/kg, DAY 17): −131 +/− 47; tumor volume changes from baseline, Median +/− MAD (15 mg/kg, DAY 20): −131 +/− 47; tumor volume changes from baseline, Median +/− MAD (15 mg/kg, DAY 25): −131 +/− 47; tumor volume changes from baseline, Median +/− MAD (15 mg/kg, DAY 28): −131 +/− 47; tumor volume changes from baseline, Median +/− MAD (15 mg/kg, DAY 32): −131 +/− 40; #CR (24.2 mg/kg i.v./q4d × 3): 9; #PR (24.2 mg/kg i.v./q4d × 3): 9; #TFS (24.2 mg/kg i.v./q4d × 3): 8; Drug Deaths Total (24.2 mg/kg i.v./q4d × 3): 0; Weight Nadir % (24.2 mg/kg i.v./q4d × 3): −5%; Weight Nadir Day (24.2 mg/kg i.v./q4d × 3): 11; Tumor Volume Data (Day 11) Median (24.2 mg/kg i.v./q4d × 3): 0 mm^3; ΔT/ΔC % (24.2 mg/kg i.v./q4d × 3): −18.3%; MTTE (24.2 mg/kg i.v./q4d × 3): >61 days; T-C (24.2 mg/kg i.v./q4d × 3): >44.1 days; CR (24.2 mg/kg q4d×3 IV): 9/9; TFS (24.2 mg/kg q4d×3 IV): 8/9; tumor volume changes from baseline, Median +/− MAD (24.2 mg/kg, DAY 4): −19 +/− 19; tumor volume changes from baseline, Median +/− MAD (24.2 mg/kg, DAY 7): −150 +/− 52; tumor volume changes from baseline, Median +/− MAD (24.2 mg/kg, DAY 11): −150 +/− 38; tumor volume changes from baseline, Median +/− MAD (24.2 mg/kg, DAY 14): −150 +/− 38; tumor volume changes from baseline, Median +/− MAD (24.2 mg/kg, DAY 17): −150 +/− 38; tumor volume changes from baseline, Median +/− MAD (24.2 mg/kg, DAY 20): −150 +/− 38; tumor volume changes from baseline, Median +/− MAD (24.2 mg/kg, DAY 25): −150 +/− 38; tumor volume changes from baseline, Median +/− MAD (24.2 mg/kg, DAY 28): −150 +/− 38; tumor volume changes from baseline, Median +/− MAD (24.2 mg/kg, DAY 32): −150 +/− 38; antitumor activity compared with docetaxel (conclusion of example 6, 15 or 24.2 mg/kg, same or equi-toxic dose): significantly more active than docetaxel
